Test system: TPO-dependent human megakaryoblastic leukemia cell line (UT-7/TPO)
Test: Cell culture evaluation: UT-7/TPO cell number count using WST-8 after 6 days of culture on the substrate
Assay type: cell-based
Procedure: The ligand-bonded fiber 1 of Example 1 and the fiber of Comparative Example 1 were subjected to cell culture evaluation. As a control for the evaluation, a system in which PSt substrate was configured (positive control: thrombopoietin (TPO) (10 ng/mL) was added to medium, negative control: medium alone) was used. In the following, the CO2 concentration (%) of the CO2 incubator is shown by % by volume of CO2 in the atmosphere.
As the cell, TPO-dependent human megakaryoblastic leukemia cell line (UT-7/TPO; Komatsu et. al., Blood, 1996, 87, pp. 4552-4560) was used. For cell culture, IMDM (Iscove's Modified Dulbecco's Medium) medium (manufactured by Sigma-Aldrich) containing 10% (v/v) FBS and 10 ng/mL TPO (Thrombopoietin, manufactured by PeproTech) was used. The cells were cultured for not less than 2 days in a CO2 incubator at 37° C. while keeping 5% carbon dioxide concentration. The obtained culture medium was centrifuged (manufactured by TOMY SEIKO Co., Ltd., LC-200, 1500 rpm/3 min, room temperature), the supernatant was removed, the above-mentioned IMDM medium free of TPO was added to prepare a cell suspension. The “FBS” here means fetal bovine serum (manufactured by Biological Industries).
The ligand-bonded fiber of Example 1, the fiber of Comparative Example 1, and PSt substrate (for positive control and negative control) were configured in 6 well flat-bottom microplates (manufactured by AS ONE Corporation). […]
After 6 days of cell culture, the cell culture medium was recovered from respective wells in which the ligand-bonded fibers 1-3 of Examples 1-3, the fiber of Comparative Example 1, the substrate of Comparative Example 2, and PSt substrates for positive control and negative control were configured. […] After standing in a CO2 incubator at 37° C. for 120 min, the absorbance at 450 nm was measured by an absorption spectrometer (manufactured by Molecular Devices, SpectraMax). […]
After 6 days of culture, the cell number was counted in the same manner as above by using WST-8. […]

thrombopoietin [positive control]
100%: cell number (%) cell culture, first time (Table 3, UT-7/TPO, 6 days culture, positive control (TPO 10 ng/mL) as 100%) | cell number (%) cell culture, third time (Table 3, same substrate reused a third time, fresh UT-7/TPO cells, 6 days, positive control as 100%) | cell number (%) cell culture, second time (Table 3, same substrate reused after PBS wash, fresh UT-7/TPO cells, 6 days, positive control as 100%)

From patent publication US10724028B2, “Ligand-binding fiber and cell culture substrate using said fiber” (NISSAN CHEMICAL INDUSTRIES, LTD., priority 2014, dated 2020)
